This test addresses T1, human CGT (ceramide galactosyltransferase), CHO/CGT lysate (Homo sapiens, UniProt Q16880).
T1 construct: Full-length human CGT cDNA was cloned into the BamH1/Xho1 site of pcDNA3.1 (+); expressed in transfected cells; host or cells: Chinese hamster ovary (CHO) cells; lysate prepared with M-PER
T1 sequence (Q16880 21-541): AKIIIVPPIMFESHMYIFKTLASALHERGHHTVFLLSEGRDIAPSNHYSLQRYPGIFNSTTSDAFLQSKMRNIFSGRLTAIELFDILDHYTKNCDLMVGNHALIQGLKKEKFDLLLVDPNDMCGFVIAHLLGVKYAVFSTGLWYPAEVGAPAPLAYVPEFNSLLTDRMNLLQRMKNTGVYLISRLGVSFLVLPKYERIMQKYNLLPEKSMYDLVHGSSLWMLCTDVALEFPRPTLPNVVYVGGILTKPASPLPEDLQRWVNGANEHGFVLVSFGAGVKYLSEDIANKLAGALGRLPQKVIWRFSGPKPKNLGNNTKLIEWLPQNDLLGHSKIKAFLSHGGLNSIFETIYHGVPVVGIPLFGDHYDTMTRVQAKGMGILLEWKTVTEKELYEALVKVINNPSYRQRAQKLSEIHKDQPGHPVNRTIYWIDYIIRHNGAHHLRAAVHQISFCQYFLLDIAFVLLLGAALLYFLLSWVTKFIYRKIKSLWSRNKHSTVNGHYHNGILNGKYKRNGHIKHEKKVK
Kind of test: CGT enzyme assay, RapidFire/MS/MS readout with 0.01% Tween added (Table 1 ranges with two asterisks **). To be noted: CGT enzymatic assay; range with two asterisks (**): RapidFire/MS/MS method with 0.01% Tween added. Type of test: biochemical. On the procedure: Full-length human CGT cDNA was cloned into the BamH1/Xho1 site of pcDNA3.1 (+) mammalian expression vector (V90-20, Invitrogen, Carlsbad, Calif.) and the plasmid was transfected into Chinese hamster ovary (CHO) cells. Lysate was prepared using M-PER (Mammalian Protein Extraction Reagent, ThermoFisher Scientific, Grand Island, N.Y.) in the presence of a protease inhibitor cocktail (P8340, Sigma, Saint Louis, Mo.). Each 100 mm dish (100% confluent, approximately 1×10^7 cells) was lysed with 250 μL of M-PER containing protease inhibitors. Protein concentration was determined using a Pierce BCA protein assay kit (ThermoFisher Scientific). Four micrograms of CHO/CGT lysate was incubated with various concentrations of a compound (0.001 μM-50 μM) in 10 mM HEPES (pH 7.2) containing 35 μM dioleoylphosphatidylcholine, 5 mM MgCl2, 5 mM MnCl2, 1% BSA, 15 mM KCl, 1 mM EGTA, 8 mM CHAPS, 10 μM C6-NBD-dihydro-ceramide and 17.5 μM UDP-galactose in a final reaction volume of 20 μL at 37° C. for 1 hour. The final concentration of DMSO was 0.5% in both compound-treated and mock-treated samples. Tween 80 (0.01%) was optionally added to the reaction mixture to help solubilize the compounds. Each individual reaction was diluted with 80 μL of methanol:acetronitrile (1:3) containing 5 μM N-docdecanoyl-NBD-galactosylceramide (internal standard) to stop the reaction. 200 μL H2O:acetonitile (1:1) was added to precipitate the protein. After sufficient mixing, the plates were centrifuged at 2469 g for 38 minutes, 200 μL of supernatant was transferred to a LC/MS 96-deep well plate and a second spin was performed at 2469 g for 10 minutes. The final supernatant was injected in triplicate for RapidFire/MS/MS analysis.
Quantitative Analysis Using the RapidFire/MS/MS Method:
The quantitative analysis of C6-NBD-dihydro-ceramide and C6-NBD-dihydro-galactosylceramide was performed on a Rapid Fire 360 high-throughput mass spectrometry system (Agilent Technologies, Palo Alto, Calif.) coupled with a API4000^+ triple quadrupole mass spectrometer (Applied Biosystems, Concord, Ontario, Canada). RapidFire software packages, including RapidFire Control panel, RapidFire UI and RapidFire Integrator (Agilent Technologies), were used to control the RapidFire instrument and to process data. Analyst 1.6.2 software packages (Applied Biosystems) were used to control the MS system and acquire MS data. […] of sample was loaded on a micro-scale C4 solid-phase extraction (SPE) cartridge (Agilent Technologies) and salts were removed using water supplemented with 0.1% formic acid at the flow rate of 1.5 mL/min for 3 sec. C6-NBD-dihydro-ceramide and C6-NBD-dihydro-galactosylceramide were co-eluted into the mass spectrometer using acetonitrile containing 0.1% formic acid at the flow rate of 1.0 mL/min for 3 sec. The total cycle time of one injection was 8 secs. The MS/MS detection was performed in ESI negative mode. The mass transition of C6-NBD-dihydro-galactosylceramide was m/z 752.6→678.6 using a −40 V collision energy, the mass transition of C6-NBD-dihydro-ceramide was m/z 590.6→115.8 using a −40 V collision energy and the mass transition of N-docdecanoyl-NBD-galactosylceramide was m/z 820.9→746.3 using a −45 V collision energy.
The C6-NBD-dihydro-galactosylceramide reading was normalized first by dividing the peak area of C6-NBD-dihydro-galactosylceramide by the peak area of the internal standard, N-docdecanoyl-NBD-galactosylceramide. IC50 values (see Table 1, where data ranges with one asterix (*) correspond to analysis using the RapidFire/MS/MS method, and data ranges with two asterixes (**) correspond to analysis using the RapidFire/MS/MS method with 0.01% Tween added) were generated from sigmoidal dose-response curves (variable slope) with GraphPad Prism software (GraphPad Software, Inc., San Diego, Calif.) using the normalized peak areas of C6-NBD-dihydro-galactosylceramide or the percent inhibition of C6-NBD-dihydro-galactosylceramide accumulation relative to DMSO control. […]

Structures can show the parent of a compound that is named as a salt. Bounds are passed on as bounds.

Among the data in US20190322676A1, “CERAMIDE GALACTOSYLTRANSFERASE INHIBITORS FOR THE TREATMENT OF DISEASE” (BioMarin Pharmaceutical Inc., priority 2016, published 2019) are IC50 values, retold here.

`NC1CC2CCC(C1)N2C(=O)[C@H](NC(=O)[C@H](O)c1ccc(OCC2CCCCC2)cc1)C(F)(F)c1ccc(-c2ccc(Cl)cc2)cc1` (stereo partly drawn) [Compound 152-4, (2R)—N-((2S)-3-(3-amino-8-azabicyclo[3.2.1]octan-8-yl)-1-(4′-chloro-[1,1′-biphenyl]-4-yl)-1,1-difluoro-3-oxopropan-2-yl)-2-(4-(cyclohexylmethoxy)phenyl)-2-hydroxyacetamide trifluoroacetate]: the IC50 was 30 to 100 µM.

In the case of `CCOc1cc(-c2ccc(C(F)(F)[C@H](NS(=O)(=O)c3ccc(OCC4CCCCC4)cc3)C(=O)N3CCC(N)CC3)cc2)ccc1Cl` [Compound 153-1, (R)—N-(3-(4-aminopiperidin-1-yl)-1-(4′-chloro-3′-ethoxy-[1,1′-biphenyl]-4-yl)-1,1-difluoro-3-oxopropan-2-yl)-4-(cyclohexylmethoxy)benzenesulfonamide trifluoroacetate], the half-inhibitory concentration (IC50) lay in the range of 1 to 10 µM.

In turn, `CCOc1cc(-c2ccc(C(F)(F)[C@@H](NS(=O)(=O)c3ccc(OCC4CCCCC4)cc3)C(=O)N3CCC(N)CC3)cc2)ccc1Cl` [Compound 153-2, (S)—N-(3-(4-aminopiperidin-1-yl)-1-(4′-chloro-3′-ethoxy-[1,1′-biphenyl]-4-yl)-1,1-difluoro-3-oxopropan-2-yl)-4-(cyclohexylmethoxy) benzenesulfonamide trifluoroacetate] came in with an IC50 of 30 to 100 µM.

In turn, `CCOc1cc(-c2ccc(C(F)(F)[C@H](NS(=O)(=O)c3ccc4cc(OC5CCCC5)ccc4c3)C(=O)N3CCC(N)CC3)cc2)ccc1Cl` [Compound 154-1, (R)—N-(3-(4-aminopiperidin-1-yl)-1-(4′-chloro-3′-ethoxy-[1,1′-biphenyl]-4-yl)-1,1-difluoro-3-oxopropan-2-yl)-6-(cyclopentyloxy)naphthalene-2-sulfonamide trifluoroacetate] came in with an IC50 of 1 to 10 µM.

The molecule `CCOc1cc(-c2ccc(C(F)(F)[C@@H](NS(=O)(=O)c3ccc4cc(OC5CCCC5)ccc4c3)C(=O)N3CCC(N)CC3)cc2)ccc1Cl` [Compound 154-2, (S)—N-(3-(4-aminopiperidin-1-yl)-1-(4′-chloro-3′-ethoxy-[1,1′-biphenyl]-4-yl)-1,1-difluoro-3-oxopropan-2-yl)-6-(cyclopentyloxy)naphthalene-2-sulfonamide trifluoroacetate] displayed an IC50 of 1 to 10 µM.

Regarding `N[C@@H]1CCN(C(=O)[C@@H](NS(=O)(=O)c2ccc(OCC3CCCCC3)cc2)C(F)(F)c2ccc(-c3ccc(Cl)cc3)cc2)C1` [Compound 155-1, N—((R)-3-((R)-3-aminopyrrolidin-1-yl)-1-(4′-chloro-[1,1′-biphenyl]-4-yl)-1,1-difluoro-3-oxopropan-2-yl)-4-(cyclohexylmethoxy)benzenesulfonamide trifluoroacetate], the IC50 is below 1 µM.

For `N[C@@H]1CCN(C(=O)[C@H](NS(=O)(=O)c2ccc(OCC3CCCCC3)cc2)C(F)(F)c2ccc(-c3ccc(Cl)cc3)cc2)C1` [Compound 155-2, N—((S)-3-((R)-3-aminopyrrolidin-1-yl)-1-(4′-chloro-[1,1′-biphenyl]-4-yl)-1,1-difluoro-3-oxopropan-2-yl)-4-(cyclohexylmethoxy) benzenesulfonamide trifluoroacetate], the concentration for half-maximal inhibition (IC50) fell in the range of 1 to 10 µM.

`NC1CCN(C(=O)[C@@H](NS(=O)(=O)c2ccc(OCC3CCCCC3)cc2)C(F)(F)c2ccc(-c3ccccc3)cc2)CC1` [Compound 156-1, (R)—N-(1-([1,1′-biphenyl]-4-yl)-3-(4-aminopiperidin-1-yl)-1,1-difluoro-3-oxopropan-2-yl)-4-(cyclohexylmethoxy)benzenesulfonamide trifluoroacetate] came in with an IC50 of 1 to 10 µM.

`NC1CCN(C(=O)[C@H](NS(=O)(=O)c2ccc(OCC3CCCCC3)cc2)C(F)(F)c2ccc(-c3ccccc3)cc2)CC1` [Compound 156-2, (S)—N-(1-([1,1′-biphenyl]-4-yl)-3-(4-aminopiperidin-1-yl)-1,1-difluoro-3-oxopropan-2-yl)-4-(cyclohexylmethoxy)benzenesulfonamide trifluoroacetate]: the IC50 was 30 to 100 µM.

Take `CN(CCCN)C(=O)[C@@H](NS(=O)(=O)c1ccc2cc(OC3CCCC3)ccc2c1)C(F)(F)c1ccc(-c2ccc(Cl)cc2)cc1` [Compound 157-1, (R)—N-(3-aminopropyl)-3-(4′-chloro-[1,1′-biphenyl]-4-yl)-2-((6-(cyclopentyloxy)naphthalene)-2-sulfonamido)-3,3-difluoro-N-methylpropanamide]: the IC50 was in the range of 1 to 10 µM.

In the case of `CN(CCCN)C(=O)[C@H](NS(=O)(=O)c1ccc2cc(OC3CCCC3)ccc2c1)C(F)(F)c1ccc(-c2ccc(Cl)cc2)cc1` [Compound 157-2, (S)—N-(3-aminopropyl)-3-(4′-chloro-[1,1′-biphenyl]-4-yl)-2-((6-(cyclopentyloxy)naphthalene)-2-sulfonamido)-3,3-difluoro-N-methyl propanamide], the IC50 is 30 to 100 µM.

For the molecule `NC1CC2CCC(C1)N2C(=O)[C@@H](NC(=O)[C@H](O)c1ccc2cc(OC3CCCC3)ccc2c1)C(F)(F)c1ccc2cc(Br)ccc2c1` (stereo partly drawn) [Compound 158-1, (2R)—N-((2R)-3-(3-amino-8-azabicyclo[3.2.1]octan-8-yl)-1-(6-bromonaphthalen-2-yl)-1,1-difluoro-3-oxopropan-2-yl)-2-(6-(cyclopentyloxy)naphthalen-2-yl)-2-hydroxyacetamide trifluoroacetate], the IC50 is 1 to 10 µM.

In the case of `NC1CC2CCC(C1)N2C(=O)[C@H](NC(=O)[C@@H](O)c1ccc2cc(OC3CCCC3)ccc2c1)C(F)(F)c1ccc2cc(Br)ccc2c1` (stereo partly drawn) [Compound 158-2, (2S)—N-((2 S)-3-(3-amino-8-azabicyclo[3.2.1]octan-8-yl)-1-(6-bromonaphthalen-2-yl)-1,1-difluoro-3-oxopropan-2-yl)-2-(6-(cyclopentyloxy)naphthalen-2-yl)-2-hydroxyacetamide trifluoroacetate], the IC50 was 30 to 100 µM.

Turning to `NC1CC2CCC(C1)N2C(=O)[C@@H](NC(=O)[C@@H](O)c1ccc2cc(OC3CCCC3)ccc2c1)C(F)(F)c1ccc2cc(Br)ccc2c1` (stereo partly drawn) [Compound 158-3, (2S)—N-((2R)-3-(3-amino-8-azabicyclo[3.2.1]octan-8-yl)-1-(6-bromonaphthalen-2-yl)-1,1-difluoro-3-oxopropan-2-yl)-2-(6-(cyclopentyloxy)naphthalen-2-yl)-2-hydroxyacetamide trifluoroacetate], the IC50 lay in the range of 10 to 30 µM.

Broadly, the IC50 is the concentration that gives 50% inhibition. Higher therefore signals weaker potency in that assay.
